Laboratory results published in paper PMC11187217, “Anti-adhesive, anti-biofilm and fungicidal action of newly synthesized gemini quaternary ammonium salts” (Scientific Reports, 2024).

Tested on: Salmonella Typhimurium TA100
Conditions: TA100, positive control 15 μg/mL
Protocol: The mutagenic potential of the tested gemini QAS was determined using the Ames test[83] using Salmonella Typhimurium TA98 and Salmonella Typhimurium TA100 with defects in histidine biosynthesis. The culture of S. Typhimurium TA98 and S. Typhimurium TA100 was incubated with shaking at 37 °C for 18 h, centrifuged (3000 rpm, 5 min) and OD = 1.5 was determined, at a wavelength of λ = 590 nm. The agar was dissolved and cooled to 42 °C. […] The media were incubated for 48 h at 37 °C. The positive control for the S. Typhimurium TA98 strain was acriflavin (100 μg/ml), and for the S. Typhimurium TA100 strain, sodium azide (15 μg/ml). The negative control was the culture without tested compound and with NaCl (0,9%). After incubation, the colonies were counted and the mutagenicity index (MR) was determined—the ratio of the number of revertants resulting from the mutagenic effect of the tested compound to the number of spontaneous revertants. Experiment was performed in three repetitions.

## [N-]=[N+]=[N-].[Na+] [sodium azide, reference compound]
  Mutagenicity ratio (MR): 25.5
± SD
  Number of colonies: 5116.0 ± 5.66
